Measured values reported in patent US20200283384A1, “ANTIBACTERIAL COMPOUNDS AND METHODS OF USE THEREOF” (Wayne State University, priority 2016, published 2020).

System: methicillin-resistant S. aureus clinical isolates (MRSA); S. aureus (K1902)
Test: Plasmid curing at sub-inhibitory concentration
Assay type: cell-based, Staphylococcus aureus
Details: for Plasmid band in agarose gel of cured derivatives: S. aureus K1902, FIG. 3; for Susceptibility of isolates after exposure to SIC: SA1 and SA2 to oxacillin, KSA to chloramphenicol
Method: Plasmid curing was performed per Trevors (Trevors, 1986 Plasmid curing in bacteria. FEMS Microbiology, 32: 149-157). In brief, the clinical isolate was grown in the presence of HN18 and HN34 at the specified concentration for 18 h at 35° C. and then plated on Muller Hinton agar (MHA) plates to obtain isolated colonies. The isolated colonies were then replica plated onto MHA and MHA plates containing antibiotics. […] The percentage curing efficiency was expressed as the number of colonies with cured phenotype per 100 colonies tested. For plasmid extraction, 5 ml of an overnight culture of S. aureus strain was centrifuged and cells were subjected to 1 ml lysostaphin (20 μg/ml) for 1 hour at 35° C. prior to DNA extraction. Extraction of DNA was carried using QIAprep Spin Miniprep Kit (Qiagen) per manufacturer's instruction. DNA profile analysis was carried out by electrophoresis on 1.5% agarose gel.
The methicillin-resistant S. aureus clinical isolates (MRSA) growing in the presence of sub-inhibitory concentrations of HN18 and HN34 were taken for the evaluation for the loss of plasmids as described above. A culture control without a curing agent was also maintained in the curing experiment to estimate the rate of spontaneous loss of plasmids under these conditions. HN18 and HN34 eliminated the plasmid mediated antibiotic resistance markers with varying curing efficiencies (Table 3). HN18 cured plasmids from SA1, SA2, SA7 and SA8 at frequency in the range of 13-100%. HN34 also cured plasmids from SA1, SA2, SA7 and SA8 strains with 30%-100% curing efficiency.
Plasmid curing activity of HN18 and HN34 was also evaluated in S. aureus (K1902) which is known to harbor a 5 kb plasmid with a chloramphenicol resistance gene. Along with the KSA reference strain, the plasmid curing activity was repeated for SA1 and SA2 strains which are MRSA (Table 4).

[1] = Table 3, isolate SA1, at SIC, lack of growth in presence of M, Ox (4 μg/ml)
[2] = Table 3, isolate SA2, at SIC, lack of growth in presence of M, Ox (4 μg/ml)
[3] = Table 3, isolate SA3, at SIC, lack of growth in presence of M, Ox (4 μg/ml)
[4] = Table 3, isolate SA4, at SIC, lack of growth in presence of M, Ox (4 μg/ml)
[5] = Table 3, isolate SA5, at SIC, lack of growth in presence of M, Ox (4 μg/ml)
[6] = Table 3, isolate SA6, at SIC, lack of growth in presence of M, Ox (4 μg/ml)
[7] = Table 3, isolate SA7, at SIC, lack of growth in presence of M, Ox (4 μg/ml)
[8] = Table 3, isolate SA8, at SIC, lack of growth in presence of M, Ox (4 μg/ml)
[9] = Table 4, KSA (S. aureus K1902), experiment I, lack of growth in presence of Cm (10 μg/ml)
[10] = Table 4, KSA (S. aureus K1902), experiment II, lack of growth in presence of Cm (10 μg/ml)
[11] = Table 4, isolate SA1, experiment I, lack of growth in presence of M, Ox (4 μg/ml)
[12] = Table 4, isolate SA2, experiment I, lack of growth in presence of M, Ox (4 μg/ml)

Compound | Plasmid band in agarose gel of cured derivatives | Susceptibility of isolates after exposure to SIC | Curing efficiency I [1] [%] | Curing efficiency II [1] [%] | Curing efficiency I [2] [%] | Curing efficiency II [2] [%] | Curing efficiency I [3] [%] | Curing efficiency II [3] [%] | Curing efficiency I [4] [%] | Curing efficiency II [4] [%] | Curing efficiency I [5] [%] | Curing efficiency II [5] [%] | Curing efficiency I [6] [%] | Curing efficiency II [6] [%] | Curing efficiency I [7] [%] | Curing efficiency II [7] [%] | Curing efficiency I [8] [%] | Curing efficiency II [8] [%] | Curing efficiency (%) [9] [%] | Curing efficiency (%) [10] [%] | also measured
Fc1ccc(C(C2=CNC3C=CC=CC23)C2=C3C=CC=CC3NC2)cc1F (stereo not drawn) [HN18, 3-((3,4-difluorophenyl)(2,7a-dihydro-1H-indol-3-yl)methyl)-3a,7a-dihydro-1H-indole] | absent | became susceptible | 0 | 100 | 100 | 50 | 0 | 0 | 100 | 0 | 0 | 0 | 0 | 0 | 23 | 90 | 13 | 70 | 36.6 | 46.6 | Curing efficiency (%) [11]: 63.3%; Curing efficiency (%) [12]: 100%; Plasmid curing frequency / curing efficiency (range over SA1, SA2, SA7 and SA8): 13-100%
Cc1[nH]c2ccccc2c1C(c1ccc(F)c(F)c1)c1c(C)[nH]c2ccccc12 [HN34] | absent | became susceptible | 100 | 100 | 100 | 70 | 0 | 0 | 100 | 0 | 0 | 0 | 0 | 0 | 50 | 30 | 40 | 63.33 | 33.3 | 50 | Curing efficiency (%) [11]: 100%; Curing efficiency (%) [12]: 96.6%
